{
  "source": "patent EP2168591A1",
  "about": "“Antimicrobial peptides” (Helmholtz Zentrum München Deutsches Forschungszentrum für …, priority 2008, dated 2010)",
  "key": {"Pseudomonas corrugata": {"system": "Pseudomonas corrugata", "method": "(§1) In-vitro inhibition assays were performed in sterile flat-bottom 96-well plates (Greiner bio-one, Frickenhausen). Antimicrobial peptides were dissolved in 0.01% acetic acid containing 0.2% BSA (500 µg/ml), filter sterilized and stored at -20°C. For inhibition assays dilutions of peptides ranging from 5 to 200 µg/ml were prepared and 10 µl (antibacterial assay) or 20 µl (antifungal assay) of each concentration was loaded per well.\n(§2) Bacteria colonies from overnight agar plate cultures were resuspended into 5ml LB-medium or HPG-medium (OD600nm=0.08-0.1) and diluted into LB-medium/HPG-medium (1:100). 90 µl of this suspension containing about 10^5-10^6 CFU/ml of tested bacteria were added to each well resulting in final peptide concentrations of 0, 0.5, 1, 2, 5, 10, and 20 µg/ml.\n(§3) The lowest peptide concentration leading to complete inhibition of bacterial growth or spore germination/mycelial growth (minimal inhibition concentration, MIC) was determined for each organism-peptide combination. For each peptide concentration two identical inhibition assays were performed. […] Table 1: Minimal inhibition concentration (MIC) for complete inhibition of bacterial growth or spore germination/mycelial growth."}, "[1]": {"system": "Pseudomonas syringae pv. tomato", "method": "as §1, §2, §3"}, "[2]": {"system": "Pseudomonas syringae pv. syringae", "method": "as §1, §2, §3"}, "Xanthomonas vesicatoria": {"system": "Xanthomonas vesicatoria", "method": "as §1, §2, §3"}, "[3]": {"system": "Pectobacterium carotovorum sub. carotovorum", "method": "as §1, §2, §3"}, "[4]": {"system": "Clavibacter michiganensis sub. michiganensis", "details": "complete inhibition of bacterial growth, overnight at 25 °C", "method": "as §1, §2, §3"}, "Alternaria alternata": {"system": "Alternaria alternata", "format": "cell-based", "details": "complete inhibition of spore germination/mycelial growth, OD590nm", "method": "(§4) In-vitro inhibition assays were performed in sterile flat-bottom 96-well plates (Greiner bio-one, Frickenhausen). […] Spores of fungi were collected by water washes of sporulating cultures grown on 2% malt extract agar and spore concentration was determined by microscopy. The concentration of the spores was adjusted to 1.5-2 x 10^3 spores/ml in 2% malt extract medium and 80 µl of fungal spores were added per well. […] After overnight incubation at room temperature the plate were put on a rotary shaker (300 rpm) for further two days to ensure consistantly growth. Antifungal effects of the peptides were determined by a microplate reader (Alternaria, Fusarium) at OD590nm or by visual screening of the plates (Botrytis, Cladosporium). The lowest peptide concentration leading to complete inhibition of bacterial growth or spore germination/mycelial growth (minimal inhibition concentration, MIC) was determined for each organism-peptide combination. For each peptide concentration two identical inhibition assays were performed. Table 1: Minimal inhibition concentration (MIC) for complete inhibition of bacterial growth or spore germination/mycelial growth."}, "Cladosporium herbarum": {"system": "Cladosporium herbarum", "format": "cell-based", "details": "complete inhibition of spore germination/mycelial growth, visual screening", "method": "as §4"}, "Botrytis cinerea": {"system": "Botrytis cinerea", "format": "cell-based", "details": "complete inhibition of spore germination/mycelial growth, visual screening", "method": "as §4"}, "[5]": {"details": "complete inhibition of bacterial growth, Pseudomonas corrugata, overnight at 25 °C"}, "[6]": {"details": "complete inhibition of bacterial growth, Pseudomonas syringae pv. tomato, overnight at 25 °C"}, "[7]": {"details": "complete inhibition of bacterial growth, Pseudomonas syringae pv. syringae, overnight at 25 °C"}, "[8]": {"details": "complete inhibition of bacterial growth, Xanthomonas vesicatoria, overnight at 25 °C"}, "[9]": {"details": "complete inhibition of bacterial growth, Pectobacterium carotovorum sub. carotovorum, overnight at 25 °C"}},
  "note": "Where two headings read alike, the source gives them in different places. Non-standard residues stand in square brackets, D forms with d. Residues, ends and D or L forms follow the SMILES beside them. No end group written: not given here.",
  "data": [
    {"molecule": "CC[C@@H](C)[C@@H](NC(=O)[C@H](Cc1ccccc1)NC(=O)[C@H](CCCNC(=N)N)NC(=O)[C@H](CCCCN)NC(=O)[C@H](CC(C)C)NC(=O)[C@H](Cc1ccccc1)NC(=O)[C@H](CCCCN)NC(=O)[C@H](NC(=O)[C@H](CC(C)C)NC(=O)[C@@H](N)CC(C)C)[C@H](C)CC)C(=O)N[C@@H](CCCCN)C(=O)N[C@@H](Cc1c[nH]cn1)C(N)=O", "note": "[SP7-D, LL/KFLKRF/KH] (H-LL[dI]KFLKRF[dI]KH-NH2; N-terminus assumed)", "values": [
      {"measurement": "Minimal inhibition concentration (MIC)", "setting": "Pseudomonas corrugata", "value": 5, "unit": "µg/mL"},
      {"measurement": "Minimal inhibition concentration (MIC)", "setting": "[1]", "value": "2,5 µg/ml"},
      {"measurement": "Minimal inhibition concentration (MIC)", "setting": "[2]", "value": "2,5 µg/ml"},
      {"measurement": "Minimal inhibition concentration (MIC)", "setting": "Xanthomonas vesicatoria", "value": 10, "unit": "µg/mL"},
      {"measurement": "Minimal inhibition concentration (MIC)", "setting": "[3]", "value": 40, "unit": "µg/mL"}
    ]},
    {"molecule": "ALAHFLKKAIKK-NH2 [SP6]", "values": [
      {"measurement": "Minimal inhibition concentration (MIC)", "setting": "Pseudomonas corrugata; [5]", "value": 20, "unit": "µg/mL"},
      {"measurement": "Minimal inhibition concentration (MIC)", "setting": "[1]; [6]", "value": 10, "unit": "µg/mL"},
      {"measurement": "Minimal inhibition concentration (MIC)", "setting": "[2]; [7]", "value": 5, "unit": "µg/mL"},
      {"measurement": "Minimal inhibition concentration (MIC)", "setting": "[4]", "value": "> 40", "unit": "µg/mL"},
      {"measurement": "Minimal inhibition concentration (MIC)", "setting": "Xanthomonas vesicatoria; [8]", "value": 40, "unit": "µg/mL"},
      {"measurement": "Minimal inhibition concentration (MIC)", "setting": "[3]; [9]", "value": "> 40", "unit": "µg/mL"},
      {"measurement": "Minimal inhibition concentration (MIC)", "setting": "Alternaria alternata", "value": "> 100", "unit": "µg/mL"},
      {"measurement": "Minimal inhibition concentration (MIC)", "setting": "Cladosporium herbarum", "value": 100, "unit": "µg/mL"},
      {"measurement": "Minimal inhibition concentration (MIC)", "setting": "Botrytis cinerea", "value": "> 100", "unit": "µg/mL"}
    ]},
    {"molecule": "LLIAAFKKLVKK-NH2 [SP5]", "values": [
      {"measurement": "Minimal inhibition concentration (MIC)", "setting": "Pseudomonas corrugata; [5]", "value": "> 40", "unit": "µg/mL"},
      {"measurement": "Minimal inhibition concentration (MIC)", "setting": "[1]; [6]", "value": "> 40", "unit": "µg/mL"},
      {"measurement": "Minimal inhibition concentration (MIC)", "setting": "[2]; [7]", "value": 40, "unit": "µg/mL"},
      {"measurement": "Minimal inhibition concentration (MIC)", "setting": "[4]", "value": 20, "unit": "µg/mL"},
      {"measurement": "Minimal inhibition concentration (MIC)", "setting": "Xanthomonas vesicatoria; [8]", "value": 40, "unit": "µg/mL"},
      {"measurement": "Minimal inhibition concentration (MIC)", "setting": "[3]; [9]", "value": "> 40", "unit": "µg/mL"},
      {"measurement": "Minimal inhibition concentration (MIC)", "setting": "Alternaria alternata", "value": "> 100", "unit": "µg/mL"},
      {"measurement": "Minimal inhibition concentration (MIC)", "setting": "Cladosporium herbarum", "value": 100, "unit": "µg/mL"},
      {"measurement": "Minimal inhibition concentration (MIC)", "setting": "Botrytis cinerea", "value": "> 100", "unit": "µg/mL"}
    ]},
    {"molecule": "LLIKFLKRFIKH-NH2 [SP7]", "values": [
      {"measurement": "Minimal inhibition concentration (MIC)", "setting": "Pseudomonas corrugata; [5]", "value": 10, "unit": "µg/mL"},
      {"measurement": "Minimal inhibition concentration (MIC)", "setting": "[1]; [6]", "value": 5, "unit": "µg/mL"},
      {"measurement": "Minimal inhibition concentration (MIC)", "setting": "[2]; [7]", "value": 10, "unit": "µg/mL"},
      {"measurement": "Minimal inhibition concentration (MIC)", "setting": "[4]", "value": 5, "unit": "µg/mL"},
      {"measurement": "Minimal inhibition concentration (MIC)", "setting": "Xanthomonas vesicatoria; [8]", "value": 5, "unit": "µg/mL"},
      {"measurement": "Minimal inhibition concentration (MIC)", "setting": "[3]; [9]", "value": "> 40", "unit": "µg/mL"},
      {"measurement": "Minimal inhibition concentration (MIC)", "setting": "Alternaria alternata", "value": "> 100", "unit": "µg/mL"},
      {"measurement": "Minimal inhibition concentration (MIC)", "setting": "Cladosporium herbarum", "value": 20, "unit": "µg/mL"},
      {"measurement": "Minimal inhibition concentration (MIC)", "setting": "Botrytis cinerea", "value": "> 100", "unit": "µg/mL"}
    ]},
    {"molecule": "LLIRAAKKFIKK-NH2 [SP8]", "values": [
      {"measurement": "Minimal inhibition concentration (MIC)", "setting": "Pseudomonas corrugata; [5]", "value": "> 40", "unit": "µg/mL"},
      {"measurement": "Minimal inhibition concentration (MIC)", "setting": "[1]; [6]", "value": "> 40", "unit": "µg/mL"},
      {"measurement": "Minimal inhibition concentration (MIC)", "setting": "[2]; [7]", "value": "> 40", "unit": "µg/mL"},
      {"measurement": "Minimal inhibition concentration (MIC)", "setting": "[4]", "value": "> 40", "unit": "µg/mL"},
      {"measurement": "Minimal inhibition concentration (MIC)", "setting": "Xanthomonas vesicatoria; [8]", "value": "> 40", "unit": "µg/mL"},
      {"measurement": "Minimal inhibition concentration (MIC)", "setting": "[3]; [9]", "value": "> 40", "unit": "µg/mL"},
      {"measurement": "Minimal inhibition concentration (MIC)", "setting": "Alternaria alternata", "value": "> 100", "unit": "µg/mL"},
      {"measurement": "Minimal inhibition concentration (MIC)", "setting": "Cladosporium herbarum", "value": 40, "unit": "µg/mL"},
      {"measurement": "Minimal inhibition concentration (MIC)", "setting": "Botrytis cinerea", "value": "> 100", "unit": "µg/mL"}
    ]}
  ]
}
